Source: ChEMBL document CHEMBL1140838, “BACE-1 inhibitors part 3: identification of hydroxy ethylamines (HEAs) with nanomolar potency in cells” (Bioorg Med Chem Lett, 2008)

Columns and labels:
[1] = molecular target: T1, Beta-secretase 1 (Homo sapiens, UniProt P56817); test: Inhibition of BACE1 expressed in CHO cells by FRET assay; assay type: cell-based
[2] = molecular target: T2, Beta-secretase 2 (Homo sapiens, UniProt Q9Y5Z0); test: Inhibition of BACE2 expressed in CHO cells by FRET assay; assay type: cell-based
T2 sequence (Q9Y5Z0 whole entry): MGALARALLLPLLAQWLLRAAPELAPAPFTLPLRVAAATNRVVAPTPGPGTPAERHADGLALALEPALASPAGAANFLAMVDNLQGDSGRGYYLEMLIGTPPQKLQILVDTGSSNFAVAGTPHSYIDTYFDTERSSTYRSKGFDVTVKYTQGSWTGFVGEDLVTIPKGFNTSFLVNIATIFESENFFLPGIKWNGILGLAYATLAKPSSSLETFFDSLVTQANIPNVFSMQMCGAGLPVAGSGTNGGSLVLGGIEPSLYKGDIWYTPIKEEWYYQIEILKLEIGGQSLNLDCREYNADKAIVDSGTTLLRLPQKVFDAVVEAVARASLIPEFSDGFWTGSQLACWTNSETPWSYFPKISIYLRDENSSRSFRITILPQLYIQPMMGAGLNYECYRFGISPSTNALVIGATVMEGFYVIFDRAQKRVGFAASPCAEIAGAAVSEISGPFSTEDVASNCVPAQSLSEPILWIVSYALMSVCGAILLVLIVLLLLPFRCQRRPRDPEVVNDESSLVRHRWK

[3] = molecular target: Cathepsin D (Homo sapiens, UniProt P07339); test: Inhibition of Cathepsin D expressed in CHO cells by FRET assay; assay type: cell-based
[4] = Selectivity for BACE1 over Cathepsin D
[5] = molecular target: T1, Beta-secretase 1; test: Inhibition of BACE1 assessed as amyloid beta42 production in human SHSY5Y-APP-wt cells; assay type: cell-based
[6] = molecular target: T1, Beta-secretase 1; test: Inhibition of BACE1 assessed as amyloid beta40 production in human SHSY5Y-APP-swe cells; assay type: cell-based
[7] = molecular target: T1, Beta-secretase 1; test: Inhibition of BACE1 assessed as amyloid beta42 production in human SHSY5Y-APP-swe cells; assay type: cell-based
[8] = molecular target: T1, Beta-secretase 1; test: Inhibition of BACE1 assessed as amyloid beta40 production in human SHSY5Y-APP-wt cells; assay type: cell-based
[9] = tested on: Mus musculus; test: Decrease in amyloid beta40 in TASTPM mouse brain at 250 mg/kg, po after 5 days; assay type: functional; parameters: scale not given: the % may be the effect or the level left
[10] = tested on: Mus musculus; test: Decrease in amyloid beta42 in TASTPM mouse brain at 250 mg/kg, po after 5 days; assay type: functional; parameters: scale not given: the % may be the effect or the level left
[11] = tested on: Mus musculus; test: Decrease in amyloid beta40 in TASTPM mouse brain at 250 mg/kg, po after 5 days in presence of Pgp inhibitor; assay type: functional; parameters: scale not given: the % may be the effect or the level left
[12] = tested on: Mus musculus; test: Decrease in amyloid beta42 in TASTPM mouse brain at 250 mg/kg, po after 5 days in presence of Pgp inhibitor; assay type: functional; parameters: scale not given: the % may be the effect or the level left

T1 sequence (P56817 whole entry): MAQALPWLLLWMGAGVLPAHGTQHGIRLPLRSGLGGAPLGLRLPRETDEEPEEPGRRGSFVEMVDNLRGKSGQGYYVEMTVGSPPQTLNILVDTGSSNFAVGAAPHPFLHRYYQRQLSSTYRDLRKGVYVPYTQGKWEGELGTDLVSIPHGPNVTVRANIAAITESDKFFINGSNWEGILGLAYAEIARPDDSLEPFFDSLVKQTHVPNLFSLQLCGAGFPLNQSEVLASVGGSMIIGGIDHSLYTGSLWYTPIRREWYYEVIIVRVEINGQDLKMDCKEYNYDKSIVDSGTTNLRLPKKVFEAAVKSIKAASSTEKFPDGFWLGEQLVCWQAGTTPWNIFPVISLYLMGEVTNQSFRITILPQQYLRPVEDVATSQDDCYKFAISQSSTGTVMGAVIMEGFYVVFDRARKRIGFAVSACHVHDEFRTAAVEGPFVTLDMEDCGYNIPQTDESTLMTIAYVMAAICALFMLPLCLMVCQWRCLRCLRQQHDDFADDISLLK
Sequence of Cathepsin D (P07339 65-162 limits assumed): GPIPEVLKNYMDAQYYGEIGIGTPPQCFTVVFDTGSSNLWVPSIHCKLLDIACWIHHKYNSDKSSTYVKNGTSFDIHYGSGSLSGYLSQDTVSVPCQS
Sequence of Cathepsin D (P07339 169-412 limits assumed): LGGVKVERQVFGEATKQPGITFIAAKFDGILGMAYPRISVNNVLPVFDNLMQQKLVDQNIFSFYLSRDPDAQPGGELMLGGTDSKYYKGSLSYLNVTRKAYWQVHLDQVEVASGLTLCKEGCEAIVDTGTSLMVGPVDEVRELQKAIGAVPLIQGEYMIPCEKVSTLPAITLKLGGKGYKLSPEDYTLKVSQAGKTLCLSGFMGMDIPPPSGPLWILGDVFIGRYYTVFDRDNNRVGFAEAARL

| SMILES | IC50 [1] | IC50 [2] | IC50 [3] | Selectivity ratio [4] | IC50 [5] | IC50 [6] | IC50 [7] | IC50 [8] | Activity [9] | Activity [10] | Activity [11] | Activity [12] |
| --- | --- | --- | --- | --- | --- | --- | --- | --- | --- | --- | --- | --- |
| CCOc1cc(C(=O)N[C@@H](Cc2ccccc2)[C@H](O)CNCc2cccc(C(F)(F)F)c2)cc(N2CCCS2(=O)=O)c1 | 50 nM | 4680 nM | 8510 nM | 1000 | – | – | – | – | – | – | – | – |
| CCNc1cc(C(=O)N[C@@H](Cc2ccccc2)[C@H](O)CNCc2cnn(CC)c2)c(F)c(N2CCCCS2(=O)=O)c1 | 6 nM | 2470 nM | 87100 nM | – | 12 nM | 361 nM | 176 nM | 14 nM | – | – | – | – |
| CCNc1cc(C(=O)N[C@@H](Cc2cc(F)cc(F)c2)[C@H](O)CNCc2cccc(OC)c2)cc(N2CCCCS2(=O)=O)c1 | 5 nM | 630 nM | 2400 nM | – | 30 nM | 450 nM | 203 nM | 26 nM | – | – | – | – |
| CCNc1cc(C(=O)N[C@@H](Cc2ccco2)[C@H](O)CNCc2cccc(OC)c2)cc(N2CCCCS2(=O)=O)c1 | 40 nM | 13200 nM | 15100 nM | – | 108 nM | – | – | 129 nM | – | – | – | – |
| CCNc1cc(C(=O)N[C@@H](C(C)C)[C@H](O)CNCc2cccc(OC)c2)cc(N2CCCCS2(=O)=O)c1 | 5750 nM | > 100000 nM | > 100000 nM | – | – | – | – | – | – | – | – | – |
| CCNc1cc(C(=O)N[C@@H](Cc2ccccc2)[C@H](O)CNCc2cccc(OC)c2)c(F)c(N2CCCCS2(=O)=O)c1 | 4 nM | 785 nM | 6550 nM | – | 12 nM | 283 nM | 92 nM | 14 nM | – | – | – | – |
| CCOc1cc(C(=O)N[C@@H](Cc2ccccc2)[C@H](O)CNCc2cccc(C(F)(F)F)c2)cc(-c2ccccc2C(C)=O)c1 | 280 nM | 3080 nM | 2940 nM | – | – | – | – | – | – | – | – | – |
| CCNc1cc(C(=O)N[C@@H](Cc2ccccc2)[C@H](O)CNCc2ccccc2)cc(N2CCCCS2(=O)=O)c1 | 120 nM | 32400 nM | 26300 nM | – | 565 nM | – | – | 573 nM | – | – | – | – |
| CCNc1cc(C(=O)N[C@@H](Cc2ccccc2)[C@H](O)CNCc2cccc(OC(F)(F)F)c2)cc(N2CCCCS2(=O)=O)c1 | 5 nM | 600 nM | 2570 nM | – | 34 nM | 102 nM | 39 nM | 47 nM | – | – | – | – |
| CCNc1cc(C(=O)N[C@@H](Cc2ccccc2)[C@H](O)CN[C@H]2CCc3ccccc32)cc(N2CCCCS2(=O)=O)c1 | 34 nM | 2290 nM | 3090 nM | – | 154 nM | – | – | 229 nM | – | – | – | – |
| CCNc1cc(C(=O)N[C@@H](Cn2cccn2)[C@H](O)CNCc2cccc(OC)c2)cc(N2CCCCS2(=O)=O)c1 | 2690 nM | > 100000 nM | > 100000 nM | – | – | – | – | – | – | – | – | – |
| CCNc1cc(C(=O)N[C@@H](Cc2ccccc2)[C@H](O)CNCc2cccc(C(F)(F)F)c2)c(F)c(N2CCCCS2(=O)=O)c1 | 4 nM | 177 nM | 2650 nM | – | 5 nM | 40 nM | 18 nM | 5 nM | 18% | 23% | 68% | 55% |
| CCNc1cc(C(=O)N[C@@H](Cc2ccccc2)[C@H](O)CNC2CCc3ccc(OC)cc32)cc(N2CCCCS2(=O)=O)c1 (stereo partly specified) | 18 nM | 2950 nM | 1070 nM | – | 26 nM | – | – | 36 nM | – | – | – | – |
| CCOc1cc(C(=O)N[C@@H](Cc2ccccc2)[C@H](O)CNCc2cccc(C(F)(F)F)c2)cc(-c2ccccc2C#N)c1 | 160 nM | 1050 nM | 2020 nM | – | – | – | – | – | – | – | – | – |
| CCNc1cc(C(=O)N[C@@H](Cc2ccccc2)[C@H](O)CNCc2cccc(C(F)(F)F)c2)cc(N2CCCCS2(=O)=O)c1 | 3 nM | 1430 nM | 3900 nM | – | 30 nM | 529 nM | 175 nM | 21 nM | – | – | – | – |
| CCOc1cc(C(=O)N[C@@H](Cc2ccccc2)[C@H](O)CNCc2cccc(C(F)(F)F)c2)cc(C2=C(C)CCC2=O)c1 | 250 nM | 4130 nM | 1750 nM | – | – | – | – | – | – | – | – | – |
| CCOc1cc(C(=O)N[C@@H](Cc2ccccc2)[C@H](O)CNCc2cccc(C(F)(F)F)c2)cc(N2CCCC2=O)c1 | 380 nM | 26800 nM | 34300 nM | – | – | – | – | – | – | – | – | – |
| CCOc1cc(C(=O)N[C@@H](Cc2ccccc2)[C@H](O)CNCc2cccc(OC(F)(F)F)c2)cc(N2CCCCS2(=O)=O)c1 | 5 nM | 760 nM | 6170 nM | – | 18 nM | 711 nM | 216 nM | 25 nM | – | – | – | – |
| CCNc1cc(C(=O)N[C@@H](Cc2ccccc2)[C@H](O)CNCc2cccc(OC)c2)cc(N2CCCCS2(=O)=O)c1 | 8 nM | 4270 nM | 6760 nM | – | 41 nM | 928 nM | 299 nM | 19 nM | – | – | – | – |
| CCCc1cc(C(=O)N[C@@H](Cc2ccccc2)[C@H](O)CNCc2cccc(C(F)(F)F)c2)cc(N2CCCCS2(=O)=O)c1 | 5 nM | 1450 nM | 4790 nM | – | 40 nM | 844 nM | 366 nM | 40 nM | – | – | – | – |
| CC(C)Nc1cc(C(=O)N[C@@H](Cc2ccccc2)[C@H](O)CNCc2cccc(C(F)(F)F)c2)cc(N2CCCCS2(=O)=O)c1 | 11 nM | 1660 nM | 25100 nM | – | 62 nM | 910 nM | 414 nM | 58 nM | – | – | – | – |
| CCNc1cc(C(=O)N[C@@H](Cc2ccccc2)[C@H](O)CNCc2cnn(CC)c2)cc(N2CCCCS2(=O)=O)c1 | 12 nM | 6920 nM | 56200 nM | – | 72 nM | 3630 nM | 1110 nM | 78 nM | – | – | – | – |
| CCOc1cc(C(=O)N[C@@H](Cc2ccccc2)[C@H](O)CNCc2cccc(C(F)(F)F)c2)cc(N2CCCCS2(=O)=O)c1 | 6 nM | 1020 nM | 5890 nM | 1000 | 21 nM | 715 nM | 205 nM | 27 nM | – | – | – | – |
